Experimental data from patent EP4610269A1, “UROKINASE PLASMINOGEN ACTIVATOR SURFACE RECEPTOR (UPAR) LIGANDS FOR DIAGNOSTIC OR THERAPEUTIC USE” (3B Pharmaceuticals GmbH, priority 2024, dated 2025).
Like-named read-outs stand apart in the source and are kept apart here. *1 amine or outer side, *2 acyl side, *3 side chain or, on linkers, in order; H or OH if unused. Where a SMILES comes first, the peptide text is derived from it. Bridges are numbered along the chain shown (N, C = ends). [ ]: non-standard residue; d: D form. The star is where a group is joined. GdDOTA = Gd(III) DOTA conjugate, O=C([O-])CN1CCN(CC(=O)[O-])CCN(CC(=O)*)CCN(CC(=O)[O-])CC1.[Gd+3]; DOTA = O=C(O)CN1CCN(CC(=O)O)CCN(CC(=O)*)CCN(CC(=O)O)CC1; Pro(cis-4-F) = O=C(O)[C@@H]1C[C@H](F)CN1; Dopa = N[C@@H](Cc1ccc(O)c(O)c1)C(=O)O; Hyp = O=C(O)[C@@H]1C[C@@H](O)CN1; Pentanoyl(4-Me) = CC(C)CCC(=O)*; Cit = NC(=O)NCCC[C@H](N)C(=O)O; Butoxycarbonyl = CCCCOC(=O)*; Nva = CCC[C@H](N)C(=O)O; CO = O=C([*:1])[*:2]; NHBu = CCCCN*

Columns and labels:
[1] = molecular target: T1, Recombinant soluble human NEP (Homo sapiens, UniProt P08473); experiment: Proteolytic stability assay against NEP; assay type: in vitro ADME; details: human NEP 100 ng/mL, compound 10 µM, 37°C, LC-MS quantification; for remaining at 24 h, 10 µM: recombinant soluble human NEP, read-out: % intact compound remaining after 24h incubation
T1 construct: Recombinant soluble human NEP; purchased BioTechne, Wiesbaden, Germany
T1 sequence (P08473 52-750 limits assumed): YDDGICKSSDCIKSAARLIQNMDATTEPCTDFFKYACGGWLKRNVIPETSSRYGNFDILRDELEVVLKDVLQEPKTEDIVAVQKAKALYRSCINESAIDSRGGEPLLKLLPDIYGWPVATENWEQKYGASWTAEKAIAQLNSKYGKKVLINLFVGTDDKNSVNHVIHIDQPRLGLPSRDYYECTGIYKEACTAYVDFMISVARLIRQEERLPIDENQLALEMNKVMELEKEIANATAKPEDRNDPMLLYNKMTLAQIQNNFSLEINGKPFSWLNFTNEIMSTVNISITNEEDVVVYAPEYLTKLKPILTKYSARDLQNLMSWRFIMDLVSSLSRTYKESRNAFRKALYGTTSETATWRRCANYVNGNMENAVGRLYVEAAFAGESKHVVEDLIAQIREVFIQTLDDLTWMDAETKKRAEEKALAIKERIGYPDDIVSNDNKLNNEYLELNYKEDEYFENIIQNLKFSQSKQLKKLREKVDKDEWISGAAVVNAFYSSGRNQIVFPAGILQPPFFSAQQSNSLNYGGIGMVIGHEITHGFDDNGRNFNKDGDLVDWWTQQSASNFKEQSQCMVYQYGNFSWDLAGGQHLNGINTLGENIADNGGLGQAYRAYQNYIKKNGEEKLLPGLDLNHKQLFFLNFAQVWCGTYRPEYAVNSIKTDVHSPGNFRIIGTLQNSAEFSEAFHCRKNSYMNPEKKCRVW
Procedure: To assess the stability of compounds against NEP, the compounds were subjected to an in vitro assay based on the protocol described by Edelson et al. (Edelson, Makhlina et al. 2013).
Recombinant soluble human NEP (BioTechne, Wiesbaden, Germany) at a concentration of 100 ng/mL was mixed with the compound (10 µM) and a stable internal standard (10 µM) and incubated at 37°C. After several time points, samples were taken and analyzed with LC-MS.
The determination of the analyte in the clean sample solutions was performed on an Agilent 1290 UHPLC system coupled to an Agilent 6530 Q-TOF mass spectrometer. The chromatographic separation was carried out on a Phenomenex BioZen XB-C18 HPLC column (50 × 2 mm, 1.7 µm particle size) with gradient elution using a mixture of 0.1% formic acid in water as eluent A and acetonitrile as eluent B (2% B to 41% in 7 min, 800 µl/min, 40°C). Mass spectrometric detection was performed in positive ion ESI mode by scanning the mass range from m/z 50 to 3000 with a sampling rate of 2 / sec.
(§1) From the mass spectrometric raw data the ion currents for the double or triple charged monoisotopic signal was extracted for both, the compound and the internal standard.
(§2) Quantitation was performed by external matrix calibration with internal standard using the integrated analyte signals.
The activity of NEP was examined using a commercially available chromogenic substrate of NEP.
(§3) The result is stated as "% intact compound remaining after 24 h incubation" and means that from the amount of material at the start of the experiment the stated percentage is detected as unchanged material at the end of the experiment by LC-MS quantification. Since all compounds are more than 50% intact after 24 h they are considered as stable enough for diagnostic and therapeutic applications. Table 14: Results of the NEP stability assay

[2] = molecular target: T2, human uPAR (uPAR-Fc) (Homo sapiens, UniProt Q03405); experiment: Surface plasmon resonance (SPR) assay, single cycle kinetics; assay type: binding; details: pKD category for uPAR SPR activity assay, uPAR-Fc on Protein A-Chip, 25°C, read-out: pKD CAT (converted)
T2 construct: comprising amino acids Leu23-Arg303 according to UniProt entry Q03405.1; purchased R&D Systems 10378-UK-100
T2 sequence (Q03405 23-303): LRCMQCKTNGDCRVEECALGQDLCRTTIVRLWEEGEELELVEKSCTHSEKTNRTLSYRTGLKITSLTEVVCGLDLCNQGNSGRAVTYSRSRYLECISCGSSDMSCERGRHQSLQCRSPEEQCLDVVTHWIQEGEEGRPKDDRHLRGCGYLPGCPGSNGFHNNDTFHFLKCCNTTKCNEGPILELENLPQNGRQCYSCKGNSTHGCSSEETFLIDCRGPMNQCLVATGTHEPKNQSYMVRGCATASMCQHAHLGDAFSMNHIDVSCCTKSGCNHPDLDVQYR
In short: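 uPAR-Fc (Leu23-Arg303 extracellular domains, human IgG1 Fc) captured on Protein A chip to ~2000 RU; single-cycle kinetics at 25°C in HEPES running buffer pH 7.4 with 0.1% DMSO. KD from double-referenced sensorgrams fitted to 1:1 Langmuir model, reported as pKD.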

[3] = molecular target: T3, uPAR-expressing HEC-265 human endometrial adenocarcinoma cells (Homo sapiens, UniProt Q03405); experiment: Competitive FACS binding assay; details: pIC50 category of FACS binding
T3 construct: Cell surface uPAR-expressing HEC-265 human endometrial adenocarcinoma cells; host or cells: HEC-265
T3 sequence (Q03405 23-335): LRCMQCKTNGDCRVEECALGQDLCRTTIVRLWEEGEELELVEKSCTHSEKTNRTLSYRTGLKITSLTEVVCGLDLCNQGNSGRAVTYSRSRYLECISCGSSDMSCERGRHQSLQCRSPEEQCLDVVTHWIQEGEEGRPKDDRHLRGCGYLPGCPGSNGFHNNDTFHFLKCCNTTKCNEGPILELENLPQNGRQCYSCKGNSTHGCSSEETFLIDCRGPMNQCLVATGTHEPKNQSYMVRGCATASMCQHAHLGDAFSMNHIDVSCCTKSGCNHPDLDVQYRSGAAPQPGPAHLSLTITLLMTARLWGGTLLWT
In short: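 HEC-265 cells incubated 1 h at 4 °C with 10 nM biotinylated uPAR peptide tracer plus increasing test compound, then stained with APC-streptavidin on ice. Median APC fluorescence by flow cytometry; 4PL fit gives pIC50.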

[4] = Plasma stability assay (mouse plasma); assay type: in vitro ADME; details: 37°C, LC-MS quantification
Procedure: (§4) In order to determine the stability of selected compounds of the invention in human and mouse plasma, a plasma stability assay was carried out. Such plasma stability assay measures degradation of compounds of the present invention in blood plasma. This is an important characteristic of a compound as compounds, with the exception of pro-drugs, which rapidly degrade in plasma, generally show poor in vivo efficacy. […] The stability is sufficient for the diagnostic, therapeutic and theragnostic use of these compounds according to the present invention.
(§5) The plasma stability samples were prepared by spiking 50 µl plasma aliquots (all sodium citrate 3.7%) with 1 µl of a 0.5 mM compound stock solution in DMSO. After vortexing the samples were incubated in a Thermomixer at 37°C for 0 and 6 hours. After incubation the samples were stored on ice until further treatment. All samples were prepared in duplicates.
A suitable internal standard was added to each sample (1 µl of a 0.5 mM stock solution in DMSO). Protein precipitation was performed using two different methods depending on the compound conditions as indicated in Table 13. • A) 250 µl of acetonitrile containing 1% trifluoroacetic acid was added. After incubation at room temperature for 30 min the precipitate was separated by centrifugation and 150 µl of the supernatant was diluted with 150 µl of 1% aqueous formic acid. • B) 150 µl of a zinc sulphate precipitation agent containing 78% 0.1 M zinc sulphate and 22% acetonitrile was added. After incubation at room temperature for 30 min the precipitate was separated by centrifugation. To 100 µl of the supernatant 10 µl of 1% formic acid was added followed by further incubation at 60°C for 10 min to complete the formation of the zinc chelate, if the compound contains a free DOTA moiety.
The determination of the analyte in the clean sample solutions was performed on an Agilent 1290 UHPLC system coupled to an Agilent 6530 Q-TOF mass spectrometer. The chromatographic separation was carried out on a Phenomenex BioZen XB-C18 HPLC column (50 x 2 mm, 1.7 µm particle size).
Two different elution gradients were applied using a mixture of 0.1% formic acid in water as eluent A and acetonitrile as eluent B: • A) 2% B to 41% in 7 min, 800 µl/min, 40°C. • B) 5% B to 50% B in 6 min, 800 µL/min, 40°C.
Mass spectrometric detection was performed in positive ion ESI mode by scanning the mass range from m/z 50 to 3000 with a sampling rate of 2 / sec.
as §1, §2
(§6) Additionally, recovery was determined by spiking a pure plasma sample that only contained the internal standard after treatment with a certain amount of the compound.
(§7) Carry-over was evaluated by analysis of a blank sample (20% acetonitrile) after the highest calibration sample.
as §3, with “6” for “24”, “13:” for “14:”, “plasma” for “NEP”

[5] = Plasma stability assay (human plasma); assay type: in vitro ADME; details: human plasma (sodium citrate 3.7%), 37°C, LC-MS quantification, read-out: % intact compound remaining after 6h incubation Human plasma
Procedure: as §4, §5
A suitable internal standard was added to each sample (1 µl of a 0.5 mM stock solution in DMSO). Protein precipitation was performed using two different methods depending on the compound conditions as indicated in Table 13. • A) 250 µl of acetonitrile containing 1% trifluoroacetic acid was added. […]
as §2, §6, §7
The result is stated as "% intact compound remaining after 6 h incubation" and means that from the amount of material at the start of the experiment the stated percentage is detected as unchanged material at the end of the experiment by LC-MS quantification. […]

Compound	remaining at 24 h, 10 µM [1] [%]	Kd ([2]; single cycle kinetics) [nM]	IC50 [3] [nM]	remaining at 6 h, 9.8 µM ([4]; mouse plasma (sodium citrate 3.7%), read-out: % intact compound remaining after 6h incubation Mouse plasma) [%]	Kd [2] [nM]	remaining at 6 h, 9.8 µM [5] [%]	% intact compound remaining after 6h incubation Mouse plasma ([4]; mouse plasma (sodium citrate)) [%]	% intact compound remaining after 24h incubation [1] [%]	pIC50 CAT [3]
CC[C@H](C)[C@@H]1NC(=O)[C@@H]2CCCN2C(=O)[C@@H]2CCCN2C(=O)[C@H](Cc2ccccc2)NC(=O)[C@H](Cc2ccc(O)cc2)NC(=O)[C@H](CCC(N)=O)NC(=O)[C@H](CCCCNC(=O)CN2CCN(CC(=O)O)CCN(CC(=O)O)CCN(CC(=O)O)CC2)NC(=O)[C@@H](NC(=O)CCC(C)C)CSSC[C@@H](C(N)=O)NC(=O)[C@H](CC(C)C)NC1=O [UPAR-466, iHex-[Cys-Lys(DOTA)-Gln-Tyr-Phe-Pro-Pro-Ile-Leu-Cys]-NH2] ({Pentanoyl(4-Me)}-CK(DOTA)QYFPPILC-NH2; disulfide 1-10)	> 95	< 1.58	≤ 10						
CCCCNC(=O)N[C@H]1CSSC[C@@H](C(N)=O)NC(=O)[C@H](CCC)NC(=O)[C@H]([C@@H](C)CC)NC(=O)[C@@H]2C[C@@H](O)CN2C(=O)[C@@H]2CCCN2C(=O)[C@H](Cc2ccccc2)NC(=O)[C@H](Cc2ccc(O)cc2)NC(=O)[C@H](CCCCNC(=O)CN2CCN(CC(=O)O)CCN(CC(=O)O)CCN(CC(=O)O)CC2)NC(=O)[C@H](CCCNC(N)=O)NC1=O [UPAR-346, nBu-CAyl-[Cys-Cit-Lys(DOTA)-Tyr-Phe-Pro-Hyp-Ile-Nva-Cys]-NH2] ({NHBu-CO}-C[Cit]K(DOTA)YFP[Hyp]I[Nva]C-NH2; disulfide 1-10)	89	< 1.58	≤ 10						
CCCCOC(=O)N[C@H]1CSSC[C@@H](C(N)=O)NC(=O)[C@H](CCC)NC(=O)[C@H]([C@@H](C)CC)NC(=O)[C@@H]2C[C@@H](O)CN2C(=O)[C@@H]2C[C@H](F)CN2C(=O)[C@H](Cc2ccccc2)NC(=O)[C@H](Cc2ccc(O)c(O)c2)NC(=O)[C@H](CCCCNC(=O)CN2CCN(CC(=O)O)CCN(CC(=O)O)CCN(CC(=O)O)CC2)NC(=O)[C@H]([C@@H](C)O)NC1=O [UPAR-249, Butoc-[Cys-Thr-Lys(DOTA)-Dopa-Phe-4Cfp-Hyp-Ile-Nva-Cys]-NH2] (Butoxycarbonyl-CTK(DOTA)[Dopa]F[Pro(cis-4-F)][Hyp]I[Nva]C-NH2; disulfide 1-10)			≤ 10	22	< 1.58	64			
iHex-[Cys-Cit-Lys(GdDOTA)-Tyr-Phe-Pro-ala-Ile-Leu-Cys]-NH2 ({Pentanoyl(4-Me)}-C[Cit]K(GdDOTA)YFP[dA]ILC-NH2; disulfide 1-10 (inferred); not fully specified) [UPAR-463]							81	88	A (pIC50 values ≥8.0)
